Results on one molecule are retold here after US20170218389A1, “METHODS AND COMPOSITIONS FOR STOMATA REGULATION, PLANT IMMUNITY, AND DROUGHT TOLERANCE” (priority 2016, published 2017).

In assay [1] the test system is AtNHR1A. The assay can be described thus: qRT-PCR of AtNHR1A expression in treated wild-type Col-0 plants. Format: in vivo, Arabidopsis. The following applies: Col-0, syringe-infiltrated ABA 10 μM, 6 hpt, relative to 0 hr. The protocol:
(§1) Total RNA was purified from Arabidopsis leaves infiltrated with water (mock control), nonhost pathogen P. syringae pv. tabaci (Psta), or host pathogen P. syringae pv. maculicola (Psm). Total RNA was extracted using TRIzol (Invitrogen, NT) and 2 treated or inoculated leaves were pooled to represent one biological replicate. Total RNA was treated with DNase I (Invitrogen, NY), and 1 μg RNA was used to generate cDNA using Superscript III reverse transcriptase (Invitrogen, NY) and oligo d(T)15-20 primers. The cDNA (1:20) was then used for qRT-PCR using Power SYBR Green PCR master mix (Applied Biosystems, Foster City, Calif., USA) with an ABI Prism 7900 HT sequence detection system (Applied Biosystems). Primers specific for AtUBQ5 were used to normalize small differences in template amounts. Average Cycle Threshold (CT) values calculated using Sequence Detection Systems (version 2.2.2; Applied Biosystems) from duplicate samples were used to determine the fold expression relative to controls.
(§2) The gene expression patterns of AtNHR1A and AtNHR1B were determined by quantitative RT-PCR (qRT-PCR) after treating wild-type Col-0 plants with ABA, PAMPs (Flg22 and LPS), host (P. syringae pv. maculicola) and nonhost (P. syringae pv. tabaci) bacterial pathogens. […]
On the technique in general: Quantitative PCR measures a nucleic acid by following its amplification.

In assay [2] the test system is AtNHR1B. The assay is described as follows: qRT-PCR of AtNHR1B expression in treated wild-type Col-0 plants. Format: in vivo, Arabidopsis. To be noted: Col-0, 12 hpt; ABA 10 μM, Flg22 20 μM. The protocol:
as §1, §2

Assay [3] has as its system stomata of Arabidopsis epidermal peels. The assay can be described thus: Stomatal closure / aperture in epidermal peels of NHR1A lines. Format: cell-based. To be noted: ABA 50 μM, flg22 20 μM. Here is the method:
FIG. 6A, FIG. 6B and FIG. 6C show ABA, PAMPs, host and nonhost bacterial pathogens induce AtNHR1A, AtNHR1B, and stomatal closure in an AtNHR1A-dependent manner. Histograms are depicted of AtNHR1A (FIG. 6A) and AtNHR1B (FIG. 6B) gene expression in Arabidopsis wild-type (Col-0) plants individually syringe-infiltrated with ABA (10 μM), Flg22 (20 μM), or LPS (100 ng), or flood-inoculated with the pathogens P. syringae pv. maculicola (Psm) and P. syringae pv. tabaci (Pst) at 1×10^4 cfu/mL. Bars indicate relative gene expression in comparison with the housekeeping gene UBQ5 and in relation to the 0 hr time-point. Different letters above bars indicate a statistically significant difference within a treatment (Student's t-test; p-value=0.05). Error bars represent the standard deviation of three biological replicates (three technical replicates for each biological replicate). Histograms are depicted quantifying stomatal aperture size from epidermal peels incubated with ABA (10 μM or 50 μM), Flg22 (20 μM), LPS (100 ng) and the nonhost pathogen Pst (1×10^6 cfu/mL), where aperture size was measured after 30 min for ABA, 1 hr for flg22 and 3 hrs for Pst (FIG. 6C). […]

The test system is the same in assay [4]. The assay is described as follows: Stomatal aperture in epidermal peels of Col-0 and AtGCN4 overexpressor lines. Format: cell-based. The following applies: both wild-type Col-0 and AtGCN4 overexpressor lines, after ABA treatment. The protocol: A representative histogram is depicted of stomatal aperture in Arabidopsis plant epidermal peels from wild-type Col-0 and GCN4-overexpressing (AtGCN4-OE6 and AtGCN4-OE16) lines measured 4 hours after treatment with MES buffer, COR, ABA, or COR+ABA.
Upon detection of PAMPs, stomata rapidly closes to prevent entry of the pathogen into apoplast (Melotto et al., 2006; Lee et al., 2013). […] Epidermal peels of AtGCN4 overexpressing lines were used to investigate whether stomata reopen after treatment with MES buffer (stomata opening buffer; control) or the host pathogen P. syringae pv. tomato DC3000. In wild-type Col-0, stomata reopened 3 hpi, while in the AtGCN4 overexpressor lines (AtGCN4-OE6 and AtGCN4-OE16), stomata remained closed even 4 hpi with P. syringae pv. tomato DC3000. Stomatal aperture was measured after ABA and coronatine treatments in order to investigate stomatal function in AtGCN4 overexpressor lines. ABA treatment induces stomatal closure in plants. After ABA treatment, the stomatal aperture size was reduced due to closing in both wild-type Col-0 and the AtGCN4 overexpressor lines.

The subject of assay [5] is AtNHR1A. The following applies: 4 hrs of 100 μM ABA, cited from earlier work.
In assay [6] the test system is AtNHR1B. To be noted: both mesophyll cells and guard cells, 4 hrs of 100 μM ABA; cited from earlier work.

As for `CC1=CC(=O)CC(C)(C)[C@@]1(O)/C=C/C(C)=C\C(=O)O` [ABA, abscisic acid], the AtNHR1A induction entry in the assay on AtNHR1A [1] is given as “twofold”. Also, the AtNHR1B expression entry in the assay with AtNHR1B [2] is recorded as “highly induced”. The Stomatal response result is “remained open” in assay [3] (Atnhr1a mutant); “closed stomata” in assay [3] (Col-0, NHR1A-OE and AtNHR1A-comp lines). Also, the Stomatal aperture size result in assay [4] is reported as “reduced”. Moreover, the “AtNHR1A transcripts vs water-treated control” value in the assay with AtNHR1A [5] (Col-0 guard cells) is on record as “only a slight increase”. Besides, the “AtNHR1A transcript level vs water-treated control” value in the assay on AtNHR1A [5] (Col-0 mesophyll cells) is given as “approximately threefold”. Besides, the “AtNHR1B transcripts vs water treatment” value in the assay with AtNHR1B [6] was “decreased”.
